pIC50: −log10 of the molar value. Where two headings read alike, the source gives them in different places. Some results are limits rather than exact numbers.

What is called pIC50 is the IC50 on a negative log10 scale, so that one unit is a factor of ten.

Format in all cases: binding
One experiment deals with T1, mTOR (Homo sapiens, UniProt P42345).
T1 construct: endogenous in cells; host or cells: Jurkat cells (ATCC TIB-152, clone E6-1), lysate
Kind of experiment: mTOR kinobeads assay (dot blot detection). The gist of the method:
(§1)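 Jurkat cell lysate (5 mg/mL protein) incubated 2 h in the cold with test compound (9-step 1:3 series) and immobilized phenylthiazole/phenylmorpholin-chromen ligand beads. Bead-bound kinases eluted, detected by specific antibody dot blot with infrared readout; IC50 from dose-response curves.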

For experiment [1], the target named is T2, DNA-dependent protein kinase (DNA-PK) (Homo sapiens, UniProt P78527).
T2 construct: endogenous in cells; host or cells: Jurkat cells (ATCC TIB-152, clone E6-1), lysate
Kind of experiment: kinobeads assay, DNA-PK (dot blot detection). The gist of the method: as §1

A further experiment deals with T3, PI3Kα (Homo sapiens, UniProt P42336).
T3 construct: endogenous in cells; host or cells: Jurkat cells (ATCC TIB-152) lysate, the only lysate described
Kind of experiment: kinobeads assay, PI3K alpha (dot blot detection). To be noted: Table 4, read-out: Inhibition values (IC50) PI3Ka.

[2] abbreviates: Table 2, Jurkat cell lysate, read-out: Inhibition values (IC50) mTor.
Setting [3] is: Table 4, read-out: Inhibition values (IC50) mTOR.
[4] abbreviates: Table 2, Jurkat cell lysate, read-out: Inhibition values (IC50) DNAPK.
Where [5] appears, read: Table 4, read-out: Inhibition values (IC50) DNAPK.

T2 sequence (P78527 whole entry): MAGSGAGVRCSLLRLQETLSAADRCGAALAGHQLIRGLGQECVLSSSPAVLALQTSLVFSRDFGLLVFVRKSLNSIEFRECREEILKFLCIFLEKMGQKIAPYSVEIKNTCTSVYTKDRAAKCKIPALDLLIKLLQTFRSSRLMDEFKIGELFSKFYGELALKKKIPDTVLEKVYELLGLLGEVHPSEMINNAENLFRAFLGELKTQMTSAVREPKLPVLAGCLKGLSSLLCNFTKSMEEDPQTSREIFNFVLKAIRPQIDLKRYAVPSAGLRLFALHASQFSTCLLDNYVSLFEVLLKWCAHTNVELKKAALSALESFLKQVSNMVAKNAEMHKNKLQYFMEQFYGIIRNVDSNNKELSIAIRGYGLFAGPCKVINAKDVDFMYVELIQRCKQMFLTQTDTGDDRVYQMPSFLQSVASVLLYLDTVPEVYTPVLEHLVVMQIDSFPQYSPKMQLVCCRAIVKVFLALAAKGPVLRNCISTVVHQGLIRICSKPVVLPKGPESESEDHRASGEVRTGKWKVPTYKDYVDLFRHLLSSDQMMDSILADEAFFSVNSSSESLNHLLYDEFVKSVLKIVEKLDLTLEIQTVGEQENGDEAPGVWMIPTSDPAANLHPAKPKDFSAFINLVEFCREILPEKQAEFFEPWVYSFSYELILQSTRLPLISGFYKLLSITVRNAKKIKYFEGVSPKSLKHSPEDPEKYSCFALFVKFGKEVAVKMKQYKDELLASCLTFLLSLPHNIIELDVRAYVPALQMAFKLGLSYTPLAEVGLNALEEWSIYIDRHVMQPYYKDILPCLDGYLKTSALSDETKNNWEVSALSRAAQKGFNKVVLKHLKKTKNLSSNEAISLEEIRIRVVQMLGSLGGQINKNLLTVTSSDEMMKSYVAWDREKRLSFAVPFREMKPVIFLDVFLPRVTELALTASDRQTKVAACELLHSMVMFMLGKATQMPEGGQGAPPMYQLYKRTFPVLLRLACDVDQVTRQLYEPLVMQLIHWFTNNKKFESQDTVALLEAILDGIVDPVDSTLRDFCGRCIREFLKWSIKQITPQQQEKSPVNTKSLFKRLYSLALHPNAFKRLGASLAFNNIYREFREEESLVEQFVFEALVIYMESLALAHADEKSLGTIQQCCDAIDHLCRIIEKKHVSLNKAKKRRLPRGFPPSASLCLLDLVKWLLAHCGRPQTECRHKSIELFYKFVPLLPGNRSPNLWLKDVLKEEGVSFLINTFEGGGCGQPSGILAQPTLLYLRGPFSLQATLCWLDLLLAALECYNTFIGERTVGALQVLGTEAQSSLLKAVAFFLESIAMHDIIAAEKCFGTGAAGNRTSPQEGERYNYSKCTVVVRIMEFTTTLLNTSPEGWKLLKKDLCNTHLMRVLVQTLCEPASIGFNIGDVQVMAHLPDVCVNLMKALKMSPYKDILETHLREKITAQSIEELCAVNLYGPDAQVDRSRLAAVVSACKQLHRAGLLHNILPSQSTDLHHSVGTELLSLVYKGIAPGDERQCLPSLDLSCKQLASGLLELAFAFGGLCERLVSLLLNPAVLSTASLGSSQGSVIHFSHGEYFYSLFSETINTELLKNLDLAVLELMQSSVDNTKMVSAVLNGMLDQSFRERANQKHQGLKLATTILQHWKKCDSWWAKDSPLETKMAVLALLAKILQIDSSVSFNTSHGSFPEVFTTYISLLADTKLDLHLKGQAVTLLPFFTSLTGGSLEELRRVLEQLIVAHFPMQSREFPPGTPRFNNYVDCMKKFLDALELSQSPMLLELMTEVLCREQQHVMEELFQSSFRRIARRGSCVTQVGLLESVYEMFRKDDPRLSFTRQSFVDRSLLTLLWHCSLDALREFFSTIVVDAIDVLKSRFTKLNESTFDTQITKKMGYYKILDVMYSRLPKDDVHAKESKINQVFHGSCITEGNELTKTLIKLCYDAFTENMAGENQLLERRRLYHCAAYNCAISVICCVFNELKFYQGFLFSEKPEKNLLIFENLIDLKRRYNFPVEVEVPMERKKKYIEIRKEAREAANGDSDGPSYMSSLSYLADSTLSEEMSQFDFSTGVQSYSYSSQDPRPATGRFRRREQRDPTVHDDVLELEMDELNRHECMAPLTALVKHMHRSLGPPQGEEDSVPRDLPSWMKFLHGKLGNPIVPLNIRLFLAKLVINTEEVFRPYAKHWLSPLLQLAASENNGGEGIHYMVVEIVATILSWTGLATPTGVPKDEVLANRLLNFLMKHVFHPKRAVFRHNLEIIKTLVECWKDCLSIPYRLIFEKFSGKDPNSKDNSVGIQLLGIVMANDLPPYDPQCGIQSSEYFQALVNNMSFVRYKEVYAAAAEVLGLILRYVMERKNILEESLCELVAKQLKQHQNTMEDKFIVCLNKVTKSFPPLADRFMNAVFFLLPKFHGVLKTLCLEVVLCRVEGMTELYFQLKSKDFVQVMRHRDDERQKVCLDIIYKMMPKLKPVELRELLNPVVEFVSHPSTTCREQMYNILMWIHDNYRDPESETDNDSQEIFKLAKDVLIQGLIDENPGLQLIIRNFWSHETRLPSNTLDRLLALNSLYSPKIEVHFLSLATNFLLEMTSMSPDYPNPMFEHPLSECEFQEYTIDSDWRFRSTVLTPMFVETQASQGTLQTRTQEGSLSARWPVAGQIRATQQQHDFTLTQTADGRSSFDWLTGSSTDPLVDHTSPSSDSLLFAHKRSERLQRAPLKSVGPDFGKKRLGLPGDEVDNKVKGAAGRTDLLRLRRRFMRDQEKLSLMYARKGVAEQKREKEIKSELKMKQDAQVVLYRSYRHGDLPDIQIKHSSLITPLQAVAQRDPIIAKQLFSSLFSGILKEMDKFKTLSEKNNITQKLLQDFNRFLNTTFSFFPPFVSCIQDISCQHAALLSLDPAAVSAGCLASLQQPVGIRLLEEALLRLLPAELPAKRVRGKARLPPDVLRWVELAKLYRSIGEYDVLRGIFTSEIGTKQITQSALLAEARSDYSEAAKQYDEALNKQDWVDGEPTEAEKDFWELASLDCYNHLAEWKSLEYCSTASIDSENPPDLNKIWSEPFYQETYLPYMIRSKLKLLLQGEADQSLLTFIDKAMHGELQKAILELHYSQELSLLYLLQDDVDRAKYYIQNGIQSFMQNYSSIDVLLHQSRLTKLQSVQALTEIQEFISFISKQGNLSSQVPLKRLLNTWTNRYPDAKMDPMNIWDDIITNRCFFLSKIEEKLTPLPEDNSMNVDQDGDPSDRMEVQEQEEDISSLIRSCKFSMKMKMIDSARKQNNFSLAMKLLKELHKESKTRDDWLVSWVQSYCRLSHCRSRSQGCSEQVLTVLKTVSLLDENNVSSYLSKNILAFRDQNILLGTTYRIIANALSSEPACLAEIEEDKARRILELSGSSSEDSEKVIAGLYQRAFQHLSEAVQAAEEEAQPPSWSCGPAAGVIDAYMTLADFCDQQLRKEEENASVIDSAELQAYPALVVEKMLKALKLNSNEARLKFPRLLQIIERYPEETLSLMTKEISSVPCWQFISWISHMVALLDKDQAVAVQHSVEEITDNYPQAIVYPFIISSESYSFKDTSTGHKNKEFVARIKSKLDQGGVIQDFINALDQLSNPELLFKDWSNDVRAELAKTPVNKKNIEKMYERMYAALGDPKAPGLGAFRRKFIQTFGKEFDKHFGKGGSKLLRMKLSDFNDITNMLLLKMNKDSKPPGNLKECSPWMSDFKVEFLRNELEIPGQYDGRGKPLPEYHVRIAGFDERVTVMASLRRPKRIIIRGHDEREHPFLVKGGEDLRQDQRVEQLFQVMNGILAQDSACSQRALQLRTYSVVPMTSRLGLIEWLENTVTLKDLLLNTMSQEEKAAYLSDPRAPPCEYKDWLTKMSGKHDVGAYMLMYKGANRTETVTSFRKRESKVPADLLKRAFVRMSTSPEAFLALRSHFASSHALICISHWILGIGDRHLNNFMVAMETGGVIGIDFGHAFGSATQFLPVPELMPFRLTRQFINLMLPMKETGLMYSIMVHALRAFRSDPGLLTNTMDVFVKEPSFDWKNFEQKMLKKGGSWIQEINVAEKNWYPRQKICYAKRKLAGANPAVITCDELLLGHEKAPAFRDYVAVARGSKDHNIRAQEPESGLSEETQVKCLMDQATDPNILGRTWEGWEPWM

On to `CCNC(=O)Nc1ccc(-c2cc(-c3cc(F)ccc3S(C)(=O)=O)nc(N3CCOC[C@@H]3C)n2)cc1` [Example 2, (S)-1-ethyl-3-(4-(6-(5-fluoro-2-(methylsulfonyl)phenyl)-2-(3-methylmorpholino)pyrimidin-4-yl)phenyl)urea], for which the pIC50 is 6.00 to 7.00 on mTOR (setting [2]); 6.00 to 7.00 at mTOR (setting [3]); not above 5.00 in experiment [1] (setting [4]); not above 5.00 in experiment [1] (setting [5]); not above 5.00 on PI3Kα.
Regarding `C[C@H]1COCCN1c1nc(-c2ccc(NC(=O)NC3CC3)cc2)cc(-c2ccccc2S(C)(=O)=O)n1` [Example 4, (S)-1-cyclopropyl-3-(4-(2-(3-methylmorpholino)-6-(2-(methylsulfonyl)phenyl)pyrimidin-4-yl)phenyl)urea], the pIC50 was 6.00 to 7.00 on mTOR (setting [2]); 6.00 to 7.00 on mTOR (setting [3]); not above 5.00 in experiment [1] (setting [4]); not above 5.00 in experiment [1] (setting [5]); not above 5.00 on PI3Kα.
As for `C[C@H]1COCCN1c1cc(-c2ccccc2S(C)(=O)=O)nc(-c2ccc(NC(=O)NC3CC3)cc2)n1` [Example 6, (S)-1-cyclopropyl-3-(4-(4-(3-methylmorpholino)-6-(2-(methylsulfonyl)phenyl)pyrimidin-2-yl)phenyl)urea], the pIC50 on mTOR (setting [2]) is 6.00 to 7.00; on mTOR (setting [3]), 6.00 to 7.00; in experiment [1] (setting [4]) it was not above 5.00; in experiment [1] (setting [5]) it was not above 5.00; at PI3Kα, not above 5.00.
For the molecule `CCNC(=O)Nc1ccc(-c2cc(-c3ccccc3C#N)nc(N3CCOC[C@@H]3C)n2)cc1` [Example 8, (S)-1-(4-(6-(2-cyanophenyl)-2-(3-methylmorpholino)pyrimidin-4-yl)phenyl)-3-ethylurea], the pIC50 was 5.00 to 6.00 at mTOR (setting [2]), 5.00 to 6.00 on mTOR (setting [3]), not above 5.00 in experiment [1] (setting [4]) and not above 5.00 in experiment [1] (setting [5]).
For `C[C@H]1COCCN1c1cc(-c2ccc(F)nc2)nc(-c2ccc(NC(=O)NC3CC3)cc2)n1` [Example 21, (S)-1-cyclopropyl-3-(4-(4-(6-fluoropyridin-3-yl)-6-(3-methylmorpholino)pyrimidin-2-yl)phenyl)urea], the pIC50 is 6.00 to 7.00 on mTOR (setting [2]); 6.00 to 7.00 on mTOR (setting [3]); not above 5.00 in experiment [1] (setting [4]); not above 5.00 in experiment [1] (setting [5]); not above 5.00 at PI3Kα.
Take `C[C@H]1COCCN1c1cc(-c2cncc(F)c2)nc(-c2ccc(NC(=O)NC3CC3)cc2)n1` [Example 23, (S)-1-cyclopropyl-3-(4-(4-(5-fluoropyridin-3-yl)-6-(3-methylmorpholino)pyrimidin-2-yl)phenyl)urea]: the pIC50 at mTOR (setting [2]) is 6.00 to 7.00; on mTOR (setting [3]), 6.00 to 7.00; in experiment [1] (setting [4]) it was not above 5.00; in experiment [1] (setting [5]) it was not above 5.00; on PI3Kα it was not above 5.00.
`C[C@H]1COCCN1c1nc(-c2ccc(NC(=O)NC3CC3)cc2)cc(-c2cc(F)ccc2S(C)(=O)=O)n1` [Example 40, (S)-1-cyclopropyl-3-(4-(6-(5-fluoro-2-(methylsulfonyl)phenyl)-2-(3-methylmorpholino)pyrimidin-4-yl)phenyl)urea]: the pIC50 was 6.00 to 7.00 on mTOR (setting [2]); 6.00 to 7.00 at mTOR (setting [3]); not above 5.00 in experiment [1] (setting [4]); not above 5.00 in experiment [1] (setting [5]); not above 5.00 on PI3Kα.
For `C[C@H]1COCCN1c1nc(-c2ccc(NC(=O)NCCO)cc2)cc(-c2cc(F)ccc2S(C)(=O)=O)n1` [Example 41, (S)-1-(4-(6-(5-fluoro-2-(methylsulfonyl)phenyl)-2-(3-methylmorpholino)pyrimidin-4-yl)phenyl)-3-(2-hydroxyethyl)urea], the pIC50 on mTOR (setting [2]) is more than 7.00; on mTOR (setting [3]), more than 7.00; in experiment [1] (setting [4]), not above 5.00; in experiment [1] (setting [5]) it was not above 5.00; on PI3Kα, not above 5.00.
`C[C@H]1COCCN1c1cc(-c2ccccn2)nc(-c2ccc(NC(=O)NC3CC3)cc2)n1` [Example 42, (S)-1-cyclopropyl-3-(4-(4-(3-methylmorpholino)-6-(pyridin-2-yl)pyrimidin-2-yl)phenyl)urea]: the pIC50 is 6.00 to 7.00 on mTOR (setting [2]); 6.00 to 7.00 at mTOR (setting [3]); not above 5.00 in experiment [1] (setting [4]); not above 5.00 in experiment [1] (setting [5]); not above 5.00 at PI3Kα.
On to `C[C@H]1COCCN1c1cc(-c2ccccn2)nc(-c2ccc(NC(=O)NCCO)cc2)n1` [Example 43, (S)-1-(2-hydroxyethyl)-3-(4-(4-(3-methylmorpholino)-6-(pyridin-2-yl)pyrimidin-2-yl)phenyl)urea], for which the pIC50 on mTOR (setting [2]) is 6.00 to 7.00; on mTOR (setting [3]) it was 6.00 to 7.00; in experiment [1] (setting [4]), not above 5.00; in experiment [1] (setting [5]), not above 5.00; at PI3Kα, not above 5.00.
For the molecule `C[C@H]1COCCN1c1nc(-c2ccc(NC(=O)NCCF)cc2)cc(-c2cc(F)ccc2S(C)(=O)=O)n1` [Example 44, (S)-1-(4-(6-(5-fluoro-2-(methylsulfonyl)phenyl)-2-(3-methylmorpholino)pyrimidin-4-yl)phenyl)-3-(2-fluoroethyl)urea], the pIC50 at mTOR (setting [2]) is 6.00 to 7.00; on mTOR (setting [3]), 6.00 to 7.00; in experiment [1] (setting [4]) it was not above 5.00; in experiment [1] (setting [5]) it was not above 5.00; on PI3Kα, not above 5.00.
`C[C@H]1COCCN1c1nc(-c2ccc(NC(=O)NC3CC3)cc2)cc(-c2cccnc2S(C)(=O)=O)n1` [Example 46, (S)-1-cyclopropyl-3-(4-(2-(3-methylmorpholino)-6-(2-(methylsulfonyl)pyridin-3-yl)pyrimidin-4-yl)phenyl)urea]: the pIC50 on mTOR (setting [2]) is 6.00 to 7.00; on mTOR (setting [3]), 6.00 to 7.00; in experiment [1] (setting [4]), not above 5.00; in experiment [1] (setting [5]) it was not above 5.00; at PI3Kα it was not above 5.00.
On to `C[C@H]1COCCN1c1nc(-c2ccc(NC(=O)NCC(F)F)cc2)cc(-c2cc(F)ccc2S(C)(=O)=O)n1` [Example 47, (S)-1-(2,2-difluoroethyl)-3-(4-(6-(5-fluoro-2-(methylsulfonyl)phenyl)-2-(3-methylmorpholino)pyrimidin-4-yl)phenyl)urea], for which the pIC50 on mTOR (setting [2]) was 6.00 to 7.00; at mTOR (setting [3]) it was 6.00 to 7.00; in experiment [1] (setting [4]), not above 5.00; in experiment [1] (setting [5]), not above 5.00; at PI3Kα, not above 5.00.
Regarding `C[C@H]1COCCN1c1ccnc(-c2ccc(NC(=O)Nc3ccncc3)cc2)n1` [Example 60, (S)-1-(4-(4-(3-methylmorpholino)pyrimidin-2-yl)phenyl)-3-(pyridin-4-yl)urea], the pIC50 at mTOR (setting [2]) was 6.00 to 7.00; at mTOR (setting [3]), 6.00 to 7.00; in experiment [1] (setting [4]) it was not above 5.00; in experiment [1] (setting [5]) it was not above 5.00; at PI3Kα it was not above 5.00.
Regarding `O=C(Nc1ccncc1)Nc1ccc(-c2nccc(N3CC4CCC(C3)O4)n2)cc1` [Example 61, 1-(4-(4-(8-oxa-3-azabicyclo[3.2.1]octan-3-yl)pyrimidin-2-yl)phenyl)-3-(pyridin-4-yl)urea], the pIC50 on mTOR (setting [2]) was 6.00 to 7.00; at mTOR (setting [3]), 6.00 to 7.00; in experiment [1] (setting [4]), not above 5.00; in experiment [1] (setting [5]), 5.00 to 6.00; on PI3Kα it was not above 5.00.
`CS(=O)(=O)c1ccc(F)cc1-c1cc(-c2ccc(NC(=O)NCCO)cc2)nc(N2CCOCC2)n1` [Example 62, 1-(4-(6-(5-fluoro-2-(methylsulfonyl)phenyl)-2-morpholinopyrimidin-4-yl)phenyl)-3-(2-hydroxyethyl)urea]: the pIC50 was 6.00 to 7.00 at mTOR (setting [2]); 6.00 to 7.00 on mTOR (setting [3]); not above 5.00 in experiment [1] (setting [4]); not above 5.00 in experiment [1] (setting [5]); not above 5.00 at PI3Kα.
As for `C[C@H]1COCCN1c1nc(-c2ccc(NC(=O)NCCCO)cc2)cc(-c2cc(F)ccc2S(C)(=O)=O)n1` [Example 64, (S)-1-(4-(6-(5-fluoro-2-(methylsulfonyl)phenyl)-2-(3-methylmorpholino)pyrimidin-4-yl)phenyl)-3-(3-hydroxypropyl)urea], the pIC50 is 6.00 to 7.00 at mTOR (setting [2]); 6.00 to 7.00 on mTOR (setting [3]); not above 5.00 in experiment [1] (setting [4]); not above 5.00 in experiment [1] (setting [5]); not above 5.00 at PI3Kα.
As to `C[C@H]1COCCN1c1nc(-c2ccc(NC(=O)N[C@H]3CCC[C@@H]3O)cc2)cc(-c2cc(F)ccc2S(C)(=O)=O)n1` [Example 76, 1-(4-(6-(5-fluoro-2-(methylsulfonyl)phenyl)-2-((S)-3-methylmorpholino)pyrimidin-4-yl)phenyl)-3-((1S,2S)-2-hydroxycyclopentyl)urea], the pIC50 at mTOR (setting [3]) was 6.00 to 7.00; in experiment [1] (setting [5]), not above 5.00; on PI3Kα it was not above 5.00.

These data come from patent publication US9249129B2, “Morpholino substituted urea derivatives as mTOR inhibitors” (CELLZOME LIMITED, priority 2010, dated 2016).
